According to ChEMBL document CHEMBL5543162, “Discovery of a Novel Orally Bioavailable FLT3-PROTAC Degrader for Efficient Treatment of Acute Myeloid Leukemia and Overcoming Resistance of FLT3 Inhibitors” (J Med Chem, 2024):
Calls of active or inactive are those of the source. No cut-off for these calls is given here.

Tests used:
MV4-11 [1] = test: Antiproliferative activity against human MV4-11 cells expressing FLT3-ITD mutant incubated for 48 hrs by CCK8 assay; assay type: functional, cell-based; details: MV4-11, 48 h
MOLM-13 [2] = test: Antiproliferative activity against human MOLM-13 cells incubated for 48 hrs by CCK8 assay; assay type: functional, cell-based; details: MOLM-13, 48 h
[3] = target: Protein cereblon/Receptor-type tyrosine-protein kinase FLT3 (Homo sapiens, UniProt P36888+Q96SW2); test: PROTAC activity at CRBN/FLT3-ITD mutant in human MOLM-13 cells assessed as protein degradation by Western blot analysis; assay type: cell-based
[4] = system: Protein cereblon/Receptor-type tyrosine-protein kinase FLT3 (Homo sapiens), P36888+Q96SW2 [UNDEFINED MUTATION]; test: PROTAC activity at CRBN/FLT3-ITD mutant in membrane of human MV4-11 cells assessed as protein degradation at 100 nM measured after 24 hrs by immunofluorescence analysis
[5] = system: Protein cereblon/Receptor-type tyrosine-protein kinase FLT3 (Homo sapiens), P36888+Q96SW2 [UNDEFINED MUTATION]; test: PROTAC activity at CRBN/FLT3-ITD mutant in human MV4-11 cells assessed as decrease in ERK level incubated for 12 hrs by Western blot analysis; assay type: cell-based; details: dose <= 20.0 nM
[6] = system: Protein cereblon/Receptor-type tyrosine-protein kinase FLT3 (Homo sapiens), P36888+Q96SW2 [UNDEFINED MUTATION]; test: PROTAC activity at CRBN/FLT3-ITD mutant in human MV4-11 cells assessed as decrease in ERK level at 20 nM by Western blot analysis; assay type: cell-based; details: time <= 12.0 hrs, TDE = time-dependent effect
[7] = system: Protein cereblon/Receptor-type tyrosine-protein kinase FLT3 (Homo sapiens), P36888+Q96SW2 [UNDEFINED MUTATION]; test: PROTAC activity at CRBN/FLT3-ITD mutant in human MOLM-13 cells assessed as decrease in S6K level incubated for 12 hrs by Western blot analysis; assay type: cell-based; details: dose <= 20.0 nM
[8] = system: Protein cereblon/Receptor-type tyrosine-protein kinase FLT3 (Homo sapiens), P36888+Q96SW2 [UNDEFINED MUTATION]; test: PROTAC activity at CRBN/FLT3-ITD mutant in human MOLM-13 cells assessed as decrease in S6K level at 20 nM by Western blot analysis; assay type: cell-based; details: time <= 12.0 hrs, TDE = time-dependent effect
[9] = system: Protein cereblon/Receptor-type tyrosine-protein kinase FLT3 (Homo sapiens), P36888+Q96SW2 [UNDEFINED MUTATION]; test: PROTAC activity at CRBN/FLT3-ITD mutant in human MOLM-13 cells assessed as decrease in ERK level at 20 nM by Western blot analysis; assay type: cell-based; details: time <= 12.0 hrs, TDE = time-dependent effect
[10] = Antiproliferative activity against human U-937 cells expressing wild-type FLT3 incubated for 48 hrs by CCK8 assay; assay type: toxicity, cell-based
MOLM-13 [11] = test: Induction of cell cycle arrest at G1 phase in human MOLM-13 cells incubated for 24 hrs by PI/RNase staining based flow cytometry; assay type: functional; details: dose 1-50 nM
[12] = Cmax in Sprague-Dawley rat at 10 mg/kg, po measured for 24 hrs by LC-MS/MS analysis; assay type: ADME, organism-based; details: in vivo
[13] = Clearance in Sprague-Dawley rat at 10 mg/kg, po measured for 24 hrs by LC-MS/MS analysis; assay type: ADME, organism-based; details: in vivo
[14] = Oral bioavailability in Sprague-Dawley rat at 10 mg/kg measured for 24 hrs by LC-MS/MS analysis; assay type: ADME, organism-based; details: in vivo
MV4-11 [15] = test: Antitumor activity against human MV4-11 cells xenografted in nu/nu mouse at 5 mg/kg, po administered daily for 2 weeks relative to control; assay type: functional; details: MV4-11, 336 h, read-out: TGI
[16] = Toxicity in nu/nu mouse xenografted with human MV4-11 cells assessed as damage in liver at 1.25 to 10 mg/kg, po administered daily for 2 weeks by H and E staining based analysis; assay type: organism-based; details: in vivo, 336 h, dose 1.25-10 mg/kg
[17] = Toxicity in nu/nu mouse xenografted with human MV4-11 cells assessed as damage in kidney at 1.25 to 10 mg/kg, po administered daily for 2 weeks by H and E staining based analysis; assay type: organism-based; details: in vivo, 336 h, dose 1.25-10 mg/kg
MV4-11 [18] = test: Antitumor activity against human MV4-11 cells expressing luciferase xenografted in NSG mouse assessed as decrease in leukemic burden at 2.5 to 10 mg/kg, po administered daily for 3 weeks by bioluminescence imaging; assay type: functional, organism-based; details: dose 2.5-10 mg/kg
MV4-11 [19] = test: Antitumor activity against human MV4-11 cells expressing luciferase xenografted in NSG mouse assessed as increase in animal survival at 2.5 mg/kg, po administered daily for 3 weeks and measured for 58 days; assay type: functional, organism-based; details: time 58.0 day
Mus musculus = test: Anti-leukemic activity in NSG mouse xenografted with human MV4-11 cells expressing luciferase assessed as decrease in CD45+/CD33+ cells proportion in spleen at 1.25 to 10 mg/kg, po administered daily for 3 weeks; assay type: functional, organism-based; details: dose 1.25-10 mg/kg
[20] = system: Protein cereblon/Receptor-type tyrosine-protein kinase FLT3 (Homo sapiens), P36888+Q96SW2 [UNDEFINED MUTATION]; test: PROTAC activity at CRBN/FLT3-ITD in human MV4-11 cells assessed as effect on PI3K-Akt signalling pathway by KEGG analysis; assay type: cell-based
MOLM-13 [21] = test: Antiproliferative activity against Quizartinib-resistant human MOLM-13 cells incubated for 48 hrs by CCK8 assay; assay type: functional, cell-based; details: MOLM-13, 48 h
[22] = Antiproliferative activity against mouse Ba/F3 FLT3-ITD cells incubated for 48 hrs by CCK8 assay; assay type: functional, cell-based
BaF3 = test: Antiproliferative activity against mouse Ba/F3 cells expressing FLT3-ITD D835Y mutant incubated for 48 hrs by CCK8 assay; assay type: functional, cell-based; details: BaF3, 48 h
[23] = Stability in Sprague-Dawley rat plasma at 50 ug/ml incubated upto 8 hrs by LC-MS/MS analysis; assay type: ADME, cell-free; details: at 50 µg/mL
[24] = Stability in Sprague-Dawley rat intestinal fluid at 50 ug/ml incubated upto 8 hrs by LC-MS/MS analysis; assay type: ADME, tissue-based, Intestine; details: simulated gi fluid, at 50 µg/mL
[25] = Stability in human liver microsomes assessed as half life; assay type: ADME, Microsome
[26] = Stability in dog liver microsomes assessed as half life; assay type: ADME, Canis lupus familiaris, Microsome
[27] = Stability in rat liver microsomes assessed as half life; assay type: ADME, Microsome
[28] = Stability in dog liver microsomes assessed as hepatic clearance; assay type: ADME, Canis lupus familiaris, Microsome
[29] = Stability in rat liver microsomes assessed as hepatic clearance; assay type: ADME, Microsome
Cytochrome P450 2D6 = Cytochrome P450 2D6 (Homo sapiens, UniProt P10635); test: Inhibition of CYP2D6 (unknown origin); assay type: ADME
CYP3A4/CYP3A5 = CYP3A4/CYP3A5 (Homo sapiens, UniProt P08684+P20815); test: Inhibition of CYP3A4/CYP3A5 (unknown origin) using midazolam as substrate; assay type: ADME, protein assay; details: probe midazolam
Cytochrome P450 2B6 = target: T1, Cytochrome P450 2B6 (Homo sapiens, UniProt P20813); test: Inhibition of CYP2B6 (unknown origin); assay type: ADME
T1 sequence (P20813 whole entry): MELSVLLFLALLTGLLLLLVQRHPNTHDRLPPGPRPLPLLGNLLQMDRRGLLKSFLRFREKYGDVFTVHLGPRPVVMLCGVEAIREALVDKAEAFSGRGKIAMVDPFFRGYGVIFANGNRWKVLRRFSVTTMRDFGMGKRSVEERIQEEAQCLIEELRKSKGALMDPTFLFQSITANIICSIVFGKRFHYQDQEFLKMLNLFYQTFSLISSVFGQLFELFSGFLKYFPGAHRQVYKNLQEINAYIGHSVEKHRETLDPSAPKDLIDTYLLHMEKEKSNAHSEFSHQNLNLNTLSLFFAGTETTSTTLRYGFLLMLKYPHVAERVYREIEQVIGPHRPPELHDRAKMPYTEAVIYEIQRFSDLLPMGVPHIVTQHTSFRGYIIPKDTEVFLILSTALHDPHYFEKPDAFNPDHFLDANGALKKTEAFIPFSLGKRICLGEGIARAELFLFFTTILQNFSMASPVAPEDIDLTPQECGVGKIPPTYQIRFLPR

Sequence of Protein cereblon/Receptor-type tyrosine-protein kinase FLT3 (Homo sapiens), P36888+Q96SW2 [UNDEFINED MUTATION] (P36888 whole entry, looked up, stated change not applied): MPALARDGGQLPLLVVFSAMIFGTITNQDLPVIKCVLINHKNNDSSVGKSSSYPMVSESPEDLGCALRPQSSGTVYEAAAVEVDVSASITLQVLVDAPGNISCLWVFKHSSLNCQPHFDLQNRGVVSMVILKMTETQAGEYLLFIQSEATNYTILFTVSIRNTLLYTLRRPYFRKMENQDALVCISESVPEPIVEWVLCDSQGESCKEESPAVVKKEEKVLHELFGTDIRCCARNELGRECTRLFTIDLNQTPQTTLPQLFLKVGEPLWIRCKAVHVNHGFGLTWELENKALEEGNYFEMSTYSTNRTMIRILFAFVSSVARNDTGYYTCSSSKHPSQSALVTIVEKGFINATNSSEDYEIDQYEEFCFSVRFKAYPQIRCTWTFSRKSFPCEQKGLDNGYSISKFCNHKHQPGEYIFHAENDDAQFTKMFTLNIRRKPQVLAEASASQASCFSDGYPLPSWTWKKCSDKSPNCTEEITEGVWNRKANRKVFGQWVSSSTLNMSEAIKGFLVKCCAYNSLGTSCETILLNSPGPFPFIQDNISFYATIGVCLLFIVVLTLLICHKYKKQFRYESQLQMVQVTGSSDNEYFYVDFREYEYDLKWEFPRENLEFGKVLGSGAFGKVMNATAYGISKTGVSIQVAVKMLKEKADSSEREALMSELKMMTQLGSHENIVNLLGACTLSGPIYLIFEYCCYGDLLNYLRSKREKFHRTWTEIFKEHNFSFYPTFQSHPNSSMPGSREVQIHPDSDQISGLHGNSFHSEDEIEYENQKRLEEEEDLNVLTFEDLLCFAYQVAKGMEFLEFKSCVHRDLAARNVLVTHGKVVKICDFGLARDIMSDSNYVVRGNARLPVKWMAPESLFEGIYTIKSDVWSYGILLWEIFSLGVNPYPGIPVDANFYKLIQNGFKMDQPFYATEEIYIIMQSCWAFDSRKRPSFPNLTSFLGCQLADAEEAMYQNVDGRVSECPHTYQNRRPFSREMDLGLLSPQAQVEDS
Sequence of Protein cereblon/Receptor-type tyrosine-protein kinase FLT3 (Homo sapiens), P36888+Q96SW2 [UNDEFINED MUTATION] (Q96SW2 whole entry, looked up, stated change not applied): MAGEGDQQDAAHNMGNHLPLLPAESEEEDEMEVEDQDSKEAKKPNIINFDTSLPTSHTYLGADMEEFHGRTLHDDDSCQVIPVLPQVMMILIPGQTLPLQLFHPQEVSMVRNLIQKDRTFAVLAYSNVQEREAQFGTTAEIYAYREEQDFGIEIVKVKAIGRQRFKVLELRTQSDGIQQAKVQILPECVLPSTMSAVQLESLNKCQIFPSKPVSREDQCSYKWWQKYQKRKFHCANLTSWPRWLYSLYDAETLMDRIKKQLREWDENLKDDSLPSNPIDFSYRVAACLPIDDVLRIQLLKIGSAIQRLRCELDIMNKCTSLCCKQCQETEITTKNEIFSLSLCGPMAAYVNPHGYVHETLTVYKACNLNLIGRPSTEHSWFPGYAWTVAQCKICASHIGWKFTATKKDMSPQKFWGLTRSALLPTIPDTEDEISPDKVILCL
Sequence of Cytochrome P450 2D6 (P10635 whole entry): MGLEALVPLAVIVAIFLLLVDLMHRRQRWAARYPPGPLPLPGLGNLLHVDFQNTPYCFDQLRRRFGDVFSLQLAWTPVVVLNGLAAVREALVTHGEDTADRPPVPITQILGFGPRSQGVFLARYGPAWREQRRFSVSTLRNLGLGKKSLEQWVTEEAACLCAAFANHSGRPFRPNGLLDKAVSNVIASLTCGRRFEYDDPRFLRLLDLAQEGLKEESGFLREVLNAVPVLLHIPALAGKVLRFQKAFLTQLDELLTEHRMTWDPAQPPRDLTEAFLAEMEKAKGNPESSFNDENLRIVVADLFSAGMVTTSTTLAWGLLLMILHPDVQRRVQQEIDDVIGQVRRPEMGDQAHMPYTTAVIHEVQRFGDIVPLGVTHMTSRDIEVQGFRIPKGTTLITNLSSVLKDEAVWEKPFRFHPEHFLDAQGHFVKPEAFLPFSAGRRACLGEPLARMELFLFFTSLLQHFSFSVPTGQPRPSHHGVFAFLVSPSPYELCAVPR
Sequence of Protein cereblon/Receptor-type tyrosine-protein kinase FLT3 (P36888 whole entry, looked up, change not shown): as the sequence (P36888 whole entry, looked up, stated change not applied) above
Sequence of Protein cereblon/Receptor-type tyrosine-protein kinase FLT3 (Q96SW2 whole entry, looked up, change not shown): as the sequence (Q96SW2 whole entry, looked up, stated change not applied) above

Cc1c(NC(=O)CN2CCN(CC3CCN(c4ccc5c(c4)C(=O)N(C4CCC(=O)NC4=O)C5=O)CC3)CC2)c[nH]c1/C=C1\C(=O)Nc2ccc(F)cc21 (centres undefined)
IC50 (MV4-11 [1]): 39.9 nM | IC50 (MOLM-13 [2]): 170 nM | DC50 [3]: 20.1 nM | Activity [4]: Active | Activity [5]: Dose-Dependent Effect | Activity [6]: Tde | Activity [7]: Dose-Dependent Effect | Activity [8]: Tde | Activity [9]: Tde | IC50 at 48 h [10]: > 40000 nM | Activity (MOLM-13 [11]): Dose-Dependent Effect | Cmax [12]: 1120 ng/mL | CL/F [13]: 11.2 mL/min/kg | bioavailability [14]: 53% | inhibition in vivo at 5 mg/kg (MV4-11 [15]): 97.5% | Activity [16]: Non-Toxic | Activity [17]: Non-Toxic | Activity (MV4-11 [18]): Active | Activity (MV4-11 [19]): Active | Activity (Mus musculus): Active | Activity [20]: Active | IC50 (MOLM-13 [21]): 484 nM | IC50 [22]: 17 nM | IC50 (BaF3): 31.3 nM | Stability [23]: Stable | Stability [24]: Stable | half-life [25]: 1.16 h | half-life [26]: 1.88 h | half-life [27]: 1.54 h | CLhep predicted [28]: 11.3 mL/min/kg | CLhep predicted [29]: 20.5 mL/min/kg | IC50 (Cytochrome P450 2D6): > 50000 nM | IC50 (CYP3A4/CYP3A5): > 50000 nM | IC50 (Cytochrome P450 2B6): > 50000 nM
